In patent US10766888B1, “HMOX1 inducers” (Mitobridge Inc., priority 2019, dated 2020) one finds EC50 data, which are given here for two compounds.

For the assay, the system named is Human Heme Oxygenase-1 (HMOX-1). Description: ELISA assay to measure human heme oxygenase-1 (HMOX-1) in HepG2 lysate. In kind it is cell-based. Put shortly: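 Treated HepG2 cells were lysed in PBS with 0.5% Triton X100, 1 mM EDTA and protease inhibitors, and lysates were diluted 1:20. HO-1 was measured by sandwich ELISA (biotinylated detection antibody, streptavidin-HRP, chemiluminescence) at room temperature against a standard curve from 20 ng/ml. EC50 and fold change were expressed relative to DMSO control.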
A general note: ELISA stands for enzyme-linked immunosorbent assay.

Setting [1] is: human HMOX1 protein level in HepG2 lysate, * = average of 2 or more EC50 determinations, NA = Not Active, read-out: EC50.

Molecules are shown by their SMILES. Where two headings read alike, the source gives them in different places.

With `Cn1c(Nc2nc3ccccc3o2)nc2cc(C(=O)NCCOCCO)ccc21` [Example 17, 2-(benzo[d]oxazol-2-ylamino)-N-(2-(2-hydroxyethoxy)ethyl)-1-methyl-1H-benzo[d]imidazole-5-carboxamide], the EC50 is, setting by setting: (HepG2, human HMOX1, as listed in Table 5, read-out: HMOX1 EC50 h) 1.4 µM; under setting [1], 1.4 µM.

As for `COCCNC(=O)c1ccc2c(c1)nc(Nc1nc3ccc(OCCOC)cc3o1)n2C` [Example 56, 2-((6-(2-methoxyethoxy)benzo[d]oxazol-2-yl)amino)-N-(2-methoxyethyl)-1-methyl-1H-benzo[d]imidazole-5-carboxamide], the EC50 under setting [1] is 1.4 µM.

What is called EC50 is the concentration at which the effect is half-maximal.
